Results reported in ChEMBL document CHEMBL1201862, “PubChem BioAssay data set” (2004).
Active and inactive are the calls of the source.

Key:
[1] = target: MAP kinase-activated protein kinase 3 (Homo sapiens, UniProt Q16644); format: functional;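 note: value comes from a kinome-wide profiling panel in which MAPKAPK3 is one of the panel members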
[2] = target: Mitogen-activated protein kinase 13 (Homo sapiens, UniProt O15264); format: functional
[3] = target: MAP kinase-activated protein kinase 2 (Homo sapiens, UniProt P49137); format: functional;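 note: measured as one member of a kinome-wide kinase panel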
[4] = target: Non-receptor tyrosine-protein kinase TYK2 (Homo sapiens, UniProt P29597); format: functional
[5] = target: Dual specificity tyrosine-phosphorylation-regulated kinase 4 (Homo sapiens, UniProt Q9NR20); format: functional
[6] = target: Cyclin-dependent kinase 2 (Homo sapiens, UniProt P24941); format: functional;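 note: CDK2 measured as one member of a broad kinome profiling panel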
[7] = target: MAP kinase-activated protein kinase 5 (Homo sapiens, UniProt Q8IW41); format: functional;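 note: measured as one member of a kinome panel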
[8] = target: Receptor tyrosine-protein kinase erbB-4 (Homo sapiens, UniProt Q15303); format: functional;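 note: ERBB4 member of a kinome-wide kinase profiling panel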
[9] = target: Casein kinase II subunit alpha (Homo sapiens, UniProt P68400); format: functional
[10] = target: Ribosomal protein S6 kinase beta-1 (Homo sapiens, UniProt P23443); format: functional;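 note: measured as one member of a kinome-wide profiling panel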
[11] = target: Serine/threonine-protein kinase Chk2 (Homo sapiens, UniProt O96017); format: functional;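 note: CHEK2 entry within a kinome-wide screening panel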
[12] = target: Mitogen-activated protein kinase kinase kinase 20 (Homo sapiens, UniProt Q9NYL2); format: functional
[13] = target: Serine/threonine-protein kinase PLK1 (Homo sapiens, UniProt P53350); format: functional;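 note: PLK1 measured as one member of a kinome-wide profiling panel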
[14] = target: Tyrosine-protein kinase Srms (Homo sapiens, UniProt Q9H3Y6); format: functional;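 note: SRMS measured as one member of a kinome-wide kinase profiling panel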
[15] = target: Testis-specific serine/threonine-protein kinase 1 (Homo sapiens, UniProt Q9BXA7); format: functional
[16] = target: Serine/threonine-protein kinase Nek4 (Homo sapiens, UniProt P51957); format: functional
[17] = target: Fibroblast growth factor receptor 3 (Homo sapiens, UniProt P22607); format: functional
[18] = target: Phosphorylase b kinase gamma catalytic chain, liver/testis isoform (Homo sapiens, UniProt P15735); format: functional;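 note: PHKG2 measured as one member of a kinome-wide kinase panel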
[19] = target: Tyrosine-protein kinase ITK/TSK (Homo sapiens, UniProt Q08881); format: functional;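 note: affinity for ITK measured as one member of a broad kinase panel profiling binding across the kinome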
[20] = target: Heat shock protein HSP 90-alpha (Homo sapiens, UniProt P07900); format: functional, organism-based
[21] = Counterscreen for AddAB inhibitors: absorbance-based bacterial cell-based high throughput dose response assay for inhibitors of bacterial viability. [Related pubchem assays (depositor defined):AID435030, AID449728, AID449731, AID488942, AID488955, AID488956]; format: functional
cells = format: functional, cell-based
[22] = HepG2 cell cytotoxicity, dose response, cytotoxicity control for Shn3 inhibitor project, CellTiter-Glo, cherry-picked (AID 624134); format: functional, cell-based
[23] = target: Serine/threonine-protein phosphatase (Candida dubliniensis (strain CD36 / CBS 7987 / NCPF 3949 / NRRLY-17841) (Yeast), UniProt B9W6M3); assay: calcineurin pathway inhibitors in yeast reporter, dose response, S. cerevisiae, CDRE-lacZ, luminescence, secondary (AID 2388); format: functional, cell-based;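 note: yeast reporter cells carrying a calcineurin-responsive lacZ construct stimulated with calcium chloride; luminescent beta-galactosidase reporter signal in whole cells rather than isolated phosphatase activity; potency for inhibition where a drop in reporter signal means calcineurin blockade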
[24] = control 3'UTR Renilla luciferase suppression, dose response, counter-screen for Shn3 inhibitor project, cell-based, Clone20-Shn3RL, cherry-picked (AID 624133); format: functional
Protein RecA = target: T1, Protein RecA (Mycobacterium tuberculosis, UniProt P9WHJ3); assay: Fluorescence Cell-Free Homogeneous Dose Retest to Identify Inhibitors of RecA-Intein Splicing Activity. [Related pubchem assays (depositor defined):AID2097, AID2223, AID489010, AID492950]; format: functional
T1 sequence (P9WHJ3 whole entry): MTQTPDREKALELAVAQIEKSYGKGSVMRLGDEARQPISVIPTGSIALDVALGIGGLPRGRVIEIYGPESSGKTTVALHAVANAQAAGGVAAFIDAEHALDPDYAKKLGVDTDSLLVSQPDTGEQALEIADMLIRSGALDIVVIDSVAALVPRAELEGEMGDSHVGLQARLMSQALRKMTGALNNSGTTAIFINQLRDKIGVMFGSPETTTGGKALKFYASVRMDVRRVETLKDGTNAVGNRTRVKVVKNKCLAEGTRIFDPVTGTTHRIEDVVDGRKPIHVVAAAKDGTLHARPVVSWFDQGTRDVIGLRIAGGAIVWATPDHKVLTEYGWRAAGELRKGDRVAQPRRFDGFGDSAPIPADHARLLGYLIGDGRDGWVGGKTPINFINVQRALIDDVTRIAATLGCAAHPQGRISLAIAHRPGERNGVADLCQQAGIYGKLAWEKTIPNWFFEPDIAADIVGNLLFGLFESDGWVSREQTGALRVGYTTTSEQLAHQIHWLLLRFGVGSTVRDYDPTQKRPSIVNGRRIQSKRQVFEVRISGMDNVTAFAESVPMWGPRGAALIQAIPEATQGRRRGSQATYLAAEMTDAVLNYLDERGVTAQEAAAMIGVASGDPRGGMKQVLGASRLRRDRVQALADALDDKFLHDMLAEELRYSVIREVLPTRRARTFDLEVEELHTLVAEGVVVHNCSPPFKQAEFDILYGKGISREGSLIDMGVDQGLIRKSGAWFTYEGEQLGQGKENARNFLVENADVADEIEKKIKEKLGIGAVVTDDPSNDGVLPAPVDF

Sequence of Phosphorylase b kinase gamma catalytic chain, liver/testis isoform (P15735 whole entry, canonical isoform): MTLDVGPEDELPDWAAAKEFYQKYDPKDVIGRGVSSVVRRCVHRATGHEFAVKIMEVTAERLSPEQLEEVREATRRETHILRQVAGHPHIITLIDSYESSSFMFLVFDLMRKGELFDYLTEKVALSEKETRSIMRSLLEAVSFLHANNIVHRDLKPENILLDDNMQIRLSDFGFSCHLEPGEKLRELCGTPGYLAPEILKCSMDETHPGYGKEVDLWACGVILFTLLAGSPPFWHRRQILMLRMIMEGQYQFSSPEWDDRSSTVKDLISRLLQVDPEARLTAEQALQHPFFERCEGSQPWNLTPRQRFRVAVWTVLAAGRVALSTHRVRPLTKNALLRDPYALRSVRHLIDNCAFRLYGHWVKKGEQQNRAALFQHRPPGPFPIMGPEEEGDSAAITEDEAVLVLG
Sequence of MAP kinase-activated protein kinase 5 (Q8IW41 whole entry): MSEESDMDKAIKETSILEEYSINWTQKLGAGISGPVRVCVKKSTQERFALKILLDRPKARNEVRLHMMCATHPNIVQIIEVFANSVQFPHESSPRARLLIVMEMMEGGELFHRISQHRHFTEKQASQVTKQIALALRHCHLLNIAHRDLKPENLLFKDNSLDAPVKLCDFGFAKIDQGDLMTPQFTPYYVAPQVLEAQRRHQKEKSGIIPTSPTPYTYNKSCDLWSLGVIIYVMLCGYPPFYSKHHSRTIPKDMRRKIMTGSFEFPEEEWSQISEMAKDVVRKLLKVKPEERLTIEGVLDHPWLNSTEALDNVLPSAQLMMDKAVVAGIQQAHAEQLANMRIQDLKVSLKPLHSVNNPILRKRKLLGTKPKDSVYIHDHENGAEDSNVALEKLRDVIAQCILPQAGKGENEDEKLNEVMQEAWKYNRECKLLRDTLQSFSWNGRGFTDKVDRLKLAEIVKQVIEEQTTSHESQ
Sequence of Serine/threonine-protein kinase Nek4 (P51957 whole entry): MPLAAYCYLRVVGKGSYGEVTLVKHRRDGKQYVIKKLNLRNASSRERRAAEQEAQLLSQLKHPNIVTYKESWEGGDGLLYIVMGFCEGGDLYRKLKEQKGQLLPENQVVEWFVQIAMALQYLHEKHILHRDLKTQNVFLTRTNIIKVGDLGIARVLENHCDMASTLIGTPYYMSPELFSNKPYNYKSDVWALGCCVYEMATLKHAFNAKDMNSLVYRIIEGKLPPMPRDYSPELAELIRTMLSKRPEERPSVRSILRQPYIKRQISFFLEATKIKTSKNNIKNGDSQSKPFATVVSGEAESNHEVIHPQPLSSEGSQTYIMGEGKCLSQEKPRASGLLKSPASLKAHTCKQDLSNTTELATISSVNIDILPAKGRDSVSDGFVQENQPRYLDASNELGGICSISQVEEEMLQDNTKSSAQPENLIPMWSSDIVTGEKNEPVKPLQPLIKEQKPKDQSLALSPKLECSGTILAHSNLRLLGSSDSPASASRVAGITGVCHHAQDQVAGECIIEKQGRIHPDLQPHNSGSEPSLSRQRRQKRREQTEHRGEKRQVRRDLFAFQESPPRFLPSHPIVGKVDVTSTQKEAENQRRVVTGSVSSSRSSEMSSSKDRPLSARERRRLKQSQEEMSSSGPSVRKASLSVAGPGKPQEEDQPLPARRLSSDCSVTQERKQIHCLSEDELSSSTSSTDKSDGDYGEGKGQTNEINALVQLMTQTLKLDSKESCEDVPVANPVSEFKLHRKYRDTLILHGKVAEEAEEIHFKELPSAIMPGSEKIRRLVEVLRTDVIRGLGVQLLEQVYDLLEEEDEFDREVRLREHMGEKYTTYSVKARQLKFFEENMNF
Sequence of MAP kinase-activated protein kinase 2 (P49137 whole entry): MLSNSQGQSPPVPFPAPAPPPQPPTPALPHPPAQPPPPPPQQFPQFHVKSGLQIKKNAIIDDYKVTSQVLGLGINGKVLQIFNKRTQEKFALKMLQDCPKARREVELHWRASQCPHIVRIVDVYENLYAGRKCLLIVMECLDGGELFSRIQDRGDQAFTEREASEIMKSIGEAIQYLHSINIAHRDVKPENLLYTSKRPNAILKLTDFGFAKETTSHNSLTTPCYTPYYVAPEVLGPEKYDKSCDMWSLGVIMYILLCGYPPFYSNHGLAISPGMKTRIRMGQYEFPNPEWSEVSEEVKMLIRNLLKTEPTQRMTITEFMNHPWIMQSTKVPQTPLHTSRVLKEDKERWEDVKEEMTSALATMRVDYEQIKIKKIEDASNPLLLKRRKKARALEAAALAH
Sequence of Serine/threonine-protein kinase Chk2 (O96017 whole entry): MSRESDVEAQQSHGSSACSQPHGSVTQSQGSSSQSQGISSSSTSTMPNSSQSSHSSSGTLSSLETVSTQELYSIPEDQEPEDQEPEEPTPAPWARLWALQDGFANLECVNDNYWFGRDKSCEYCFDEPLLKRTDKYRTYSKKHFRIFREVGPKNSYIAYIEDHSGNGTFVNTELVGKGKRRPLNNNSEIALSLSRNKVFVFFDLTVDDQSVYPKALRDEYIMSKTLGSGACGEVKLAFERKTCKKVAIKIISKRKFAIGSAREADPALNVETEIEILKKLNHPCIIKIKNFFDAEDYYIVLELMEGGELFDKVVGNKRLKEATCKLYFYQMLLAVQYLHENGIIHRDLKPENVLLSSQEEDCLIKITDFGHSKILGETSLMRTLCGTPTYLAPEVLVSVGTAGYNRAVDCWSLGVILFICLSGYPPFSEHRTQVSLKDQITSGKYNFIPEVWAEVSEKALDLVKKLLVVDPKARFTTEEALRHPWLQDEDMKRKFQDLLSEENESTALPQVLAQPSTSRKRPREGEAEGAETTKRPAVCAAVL
Sequence of Dual specificity tyrosine-phosphorylation-regulated kinase 4 (Q9NR20 whole entry): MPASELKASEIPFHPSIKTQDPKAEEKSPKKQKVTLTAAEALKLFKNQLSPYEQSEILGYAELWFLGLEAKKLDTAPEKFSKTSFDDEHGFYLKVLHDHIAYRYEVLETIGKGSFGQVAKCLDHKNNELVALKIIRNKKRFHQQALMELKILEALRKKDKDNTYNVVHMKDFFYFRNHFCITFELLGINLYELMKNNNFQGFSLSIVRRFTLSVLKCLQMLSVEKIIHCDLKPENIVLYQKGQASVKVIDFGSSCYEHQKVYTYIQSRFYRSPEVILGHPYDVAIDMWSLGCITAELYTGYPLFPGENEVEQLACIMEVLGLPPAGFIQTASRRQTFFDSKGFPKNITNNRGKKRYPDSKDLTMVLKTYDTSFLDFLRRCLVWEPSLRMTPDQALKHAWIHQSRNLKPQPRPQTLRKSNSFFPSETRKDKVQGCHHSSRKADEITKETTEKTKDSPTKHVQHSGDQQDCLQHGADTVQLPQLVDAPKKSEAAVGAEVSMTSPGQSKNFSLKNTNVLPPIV
Sequence of Tyrosine-protein kinase Srms (Q9H3Y6 whole entry): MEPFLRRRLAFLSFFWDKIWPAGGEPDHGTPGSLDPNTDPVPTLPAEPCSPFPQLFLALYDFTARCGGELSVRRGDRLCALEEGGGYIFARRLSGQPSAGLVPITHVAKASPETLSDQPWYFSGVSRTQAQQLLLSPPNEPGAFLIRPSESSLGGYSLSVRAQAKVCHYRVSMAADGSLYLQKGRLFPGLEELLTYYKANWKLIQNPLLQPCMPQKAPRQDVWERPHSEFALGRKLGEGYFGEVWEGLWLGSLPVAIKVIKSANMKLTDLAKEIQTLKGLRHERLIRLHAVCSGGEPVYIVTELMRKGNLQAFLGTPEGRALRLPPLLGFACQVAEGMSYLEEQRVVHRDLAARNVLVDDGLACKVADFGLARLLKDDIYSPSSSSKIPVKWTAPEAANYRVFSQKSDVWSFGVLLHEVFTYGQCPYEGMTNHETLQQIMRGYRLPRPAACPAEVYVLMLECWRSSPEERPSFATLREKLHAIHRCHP
Sequence of Casein kinase II subunit alpha (P68400 whole entry): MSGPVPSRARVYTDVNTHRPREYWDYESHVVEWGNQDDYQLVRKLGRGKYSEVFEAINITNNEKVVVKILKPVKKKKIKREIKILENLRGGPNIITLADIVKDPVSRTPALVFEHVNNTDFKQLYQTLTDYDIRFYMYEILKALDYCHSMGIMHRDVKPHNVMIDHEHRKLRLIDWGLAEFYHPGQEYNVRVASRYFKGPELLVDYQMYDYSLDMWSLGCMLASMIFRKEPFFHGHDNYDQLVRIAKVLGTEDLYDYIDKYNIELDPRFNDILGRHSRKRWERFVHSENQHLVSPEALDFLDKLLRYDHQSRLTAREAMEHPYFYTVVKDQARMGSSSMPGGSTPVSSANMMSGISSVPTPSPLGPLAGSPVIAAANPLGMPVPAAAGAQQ
Sequence of Mitogen-activated protein kinase kinase kinase 20 (Q9NYL2 whole entry): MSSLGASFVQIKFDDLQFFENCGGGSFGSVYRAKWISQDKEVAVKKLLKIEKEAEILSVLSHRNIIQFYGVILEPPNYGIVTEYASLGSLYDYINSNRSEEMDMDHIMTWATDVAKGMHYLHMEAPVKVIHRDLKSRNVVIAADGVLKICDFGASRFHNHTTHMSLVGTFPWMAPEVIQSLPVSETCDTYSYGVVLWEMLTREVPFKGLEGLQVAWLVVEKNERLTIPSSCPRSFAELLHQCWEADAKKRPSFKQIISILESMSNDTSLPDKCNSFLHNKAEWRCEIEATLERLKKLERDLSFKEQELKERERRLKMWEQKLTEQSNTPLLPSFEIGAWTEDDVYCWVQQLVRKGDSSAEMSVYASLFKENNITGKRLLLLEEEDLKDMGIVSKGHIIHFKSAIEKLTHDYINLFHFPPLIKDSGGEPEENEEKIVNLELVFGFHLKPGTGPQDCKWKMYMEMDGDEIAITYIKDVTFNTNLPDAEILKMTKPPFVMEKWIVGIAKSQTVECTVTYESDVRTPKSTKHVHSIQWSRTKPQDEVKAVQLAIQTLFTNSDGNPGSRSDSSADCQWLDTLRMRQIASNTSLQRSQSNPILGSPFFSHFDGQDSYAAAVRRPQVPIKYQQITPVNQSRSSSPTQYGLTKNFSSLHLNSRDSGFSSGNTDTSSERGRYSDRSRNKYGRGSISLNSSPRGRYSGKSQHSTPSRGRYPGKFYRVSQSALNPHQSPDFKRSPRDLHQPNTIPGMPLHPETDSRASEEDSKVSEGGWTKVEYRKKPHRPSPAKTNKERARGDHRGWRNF

CS(=O)(=O)N(Cc1ccc2[nH]c(=O)c3cccn3c2c1)C1CC1
inactive: Ki [4] > 2 µM | Ki [6] > 7.94 µM | Ki [8] > 3.98 µM | Ki [10] > 6.31 µM | Ki [11] > 1.58 µM | Ki [15] > 1.58 µM | Ki [17] > 2 µM | Ki [19] > 1.58 µM
active: Ki [1] 50.1 nM | Ki [2] 251 nM | Ki [3] 79.4 nM | Ki [5] 39.8 nM | Ki [7] 10 nM | Ki [9] 15.8 nM | Ki [12] 251 nM | Ki [13] 10 nM | Ki [14] 631 nM | Ki [16] 251 nM | Ki [18] 2 µM

Cc1cc(NC(c2ccc(Cl)cc2)c2ccc3cccnc3c2O)no1 (stereo unspecified)
> 350 µM (not active): EC50 (cells)
active: AC50 [20] 3.87 µM | AC50 [22] 1.27 µM | AC50 [24] 677 nM
inactive: IC50 [21] > 119 µM | EC50 [23] > 180 µM

OCC[n+]1c2ccccc2nc2ccc(N3CCOCC3)cc21
inconclusive: EC50 (Protein RecA) > 120 µM
